What was measured:
Format in all cases: in vivo
Ctenocephalides felis [1] = test: Ctenocephalides felis oral test; settings: 48 h, 100 ppm in cattle blood, after 2 days
Procedure: (§1) • Solvent: dimethyl sulfoxide
To produce a suitable preparation of active compound, 10 mg of active compound are dissolved in 0.5 ml solvent, and the concentrate is diluted with cattle blood to the desired concentration.
Approximately 20 adult unfed cat fleas (Ctenocephalides felis) are placed in flea chambers. The blood chamber, sealed with parafilm on the bottom, are filled with cattle blood supplied with compound solution and placed on the gauze covered top of the flea chamber, so that the fleas are able to suck the blood. The blood chamber is heated to 37° C. whereas the flea chamber is kept at room temperature.
After 2 days mortality in % is determined. 100% means all the fleas have been killed; 0% means none of the fleas have been killed.

Myzus persicae [2] = test: Myzus persicae oral test; settings: 120 h
Procedure: • Solvent: 100 parts by weight acetone
To produce a suitable preparation of active compound, 1 part by weight of active compound is mixed with the stated amount of solvent, and the concentrate is diluted with water to the desired concentration. 50 μl compound solution is filled in microtiter plates and 150 μl IPL41 insect medium (33%+15% sugar) is added to obtain a total volume of 200 μl per well. Afterwards the plates are sealed with parafilm through which a mixed population of the green peach aphid (Myzus persicae) can suck on the compound preparation.
(§2) After 5 days mortality in % is determined. 100% means all aphids have been killed and 0% means none of the aphids have been killed.

[3] = tested on: Aedes aegypti strain MONHEIM; test: Aedes aegypti test (surface treatment & contact assay); settings: 24 hours after contact, read-out: efficacy (mortality); for mortality at 20 mg/m2: surface concentration 20 mg/m^2, 30 min exposure; for mortality at 4 mg/m2: surface concentration 4 mg/m^2, 30 min exposure
Procedure: (§3) • Solvent: Aceton+2000 ppm rapeseed oil methyl ester (RME)
(§4) In order to produce a sufficient, active ingredient containing solution it is necessary to solve the test compound in the solvent-mix (acetone at 2 mg/ml/RME 2000 ppm). This solution is pipetted onto a glazed tile and after evaporation of the acetone, adult mosquitoes of the species Aedes aegypti strain MONHEIM are placed onto the dried surface. The exposure time is 30 minutes.
(§5) Mortality in percent (%) is determined 24 hours after contact of the insects to the treated surface. 100% mortality means that all tested insects are dead, whereas 0% means that no insect died.

Spodoptera frugiperda = Spodoptera frugiperda spray test; settings: 168 h
Procedure: (§6) • Solvent: 78.0 parts by weight acetone • 1.5 parts by weight dimethylformamide • Emulsifier: alkylarylpolyglycol ether
(§7) To produce a suitable preparation of active compound, 1 part by weight of active compound is mixed with the stated amount of solvents and is diluted with water, containing an emulsifier concentration of 1000 ppm, to the desired concentration. Further test concentrations are prepared by dilution with emulsifier containing water.
Maize (Zea mays) leaf sections are sprayed with a preparation of the active ingredient of the desired concentration. Once dry, the leaf sections are infested with fall armyworm larvae (Spodoptera frugiperda).
After 7 days mortality in % is determined. 100% means all caterpillars have been killed and 0% means none of the caterpillars have been killed.

Phaedon cochleariae = Phaedon cochleariae spray test; settings: 168 h, after 7 days
Procedure: (§8) • Solvent: 78.0 parts by weight of acetone • 1.5 parts by weight of dimethylformamide • Emulsifier: alkylarylpolyglycol ether
as §7
Chinese cabbage (Brassica pekinensis) leaf disks are sprayed with a preparation of the active ingredient of the desired concentration. Once dry, the leaf disks are infested with mustard beetle larvae (Phaedon cochleariae).
After 7 days mortality in % is determined. 100% means all beetle larvae have been killed and 0% means none of the beetle larvae have been killed.

Boophilus microplus = Boophilus microplus injection test; settings: Rhipicephalus microplus, 168 h, 20 μg/animal, egg deposition after 7 days, read-out: efficacy (infertile eggs)
Procedure: as §1
To produce a suitable preparation of active compound, 10 mg of active compound are dissolved in 0.5 ml solvent, and the concentrate is diluted with solvent to the desired concentration.
Five adult engorged female ticks (Boophilus microplus) are injected with 1 μl compound solution into the abdomen. The ticks are transferred into replica plates and incubated in a climate chamber.
After 7 days egg deposition of fertile eggs is monitored. Eggs where fertility is not visible are stored in a climate chamber till hatching after about 42 days. An efficacy of 100% means all eggs are infertile; 0% means all eggs are fertile.

Nezara viridula = Nezara viridula spray test; settings: 96 h
Procedure: as §8
as §7, with “solvent,” for “solvents”, “and the concentrate” for “and”
Barley plants (Hordeum vulgare) infested with larvae of the southern green stink bug (Nezara viridula) are sprayed with a test solution containing the desired concentration of the active ingredient.
After 4 days mortality in % is determined. 100% means all the stink bugs have been killed; 0% means none of the stink bugs have been killed.

[4] = tested on: Musca domestica strain WHO-N; test: Musca domestica test (surface treatment & contact assay); settings: 24 hours after contact, read-out: efficacy (mortality); for mortality at 20 mg/m2: surface concentration 20 mg/m^2, 30 min exposure
Procedure: as §3
as §4, with “flies” for “mosquitoes”, “Musca domestica” for “Aedes aegypti”, “WHO-N” for “MONHEIM”
as §5

Ctenocephalides felis [5] = test: Ctenocephalides felis in-vitro contact test, adult cat flea; settings: 5 μg/cm^2, after 48 hours, read-out: efficacy (fleas dead or moribund)
Procedure: 9 mg compound is solved in 1 ml acetone and diluted with acetone to the desired concentration. 250 μl of the test solution is filled in 25 ml glass test tubes and homogeneously distributed on the inner walls by rotation and tilting on a shaking device (2 h at 30 rpm). With a compound concentration of 900 ppm, an inner surface of 44.7 cm^2 and a homogeneous distribution, a dose of 5 μg/cm^2 is achieved.
After the solvent has evaporated, each test tube is filled with 5-10 adult cat fleas (Ctenocephalides felis), closed with a perforated lid and incubated in a lying position at room temperature and relative humidity. After 48 hours efficacy is determined. The fleas are patted on the ground of the tubes and are incubated on a heating plate at 45-50° C. for at most 5 minutes. Immotile or uncoordinated moving fleas, which are not able to escape the heat by climbing upwards, are marked as dead or moribund.
An efficacy of 100% means all fleas are dead or moribund; 0% means no fleas are dead or moribund.

[6] = tested on: Anopheles funestus strain FUMOZ-R; test: Anopheles funestus test (surface treatment & contact assay); settings: 24 hours after contact, read-out: efficacy (mortality); for mortality at 4 mg/m2: surface concentration 4 mg/m^2, 30 min exposure; for mortality at 20 mg/m2: surface concentration 20 mg/m^2, 30 min exposure
Procedure: as §3
as §4, with “Anopheles funestus” for “Aedes aegypti”, “FUMOZ-R (Hunt et al., Med. Vet. Entomol. 2005 September; 19(3): 271-275)” for “MONHEIM”
as §5

Nilaparvata lugens = Nilaparvata lugens spray test; settings: 96 h
Procedure: as §8, §7
Rice plants (Oryza sativa) are sprayed with a preparation of the active ingredient of the desired concentration and the plants are infested with the brown planthopper (Nilaparvata lugens).
After 4 days mortality in % is determined. 100% means all planthoppers have been killed and 0% means none of the planthoppers have been killed.

Myzus persicae [7] = test: Myzus persicae spray test; settings: 120 h
Procedure: as §6, §7
Chinese cabbage (Brassica pekinensis) leaf disks infected with all instars of the green peach aphid (Myzus persicae), are sprayed with a preparation of the active ingredient of the desired concentration.
as §2

| SMILES | mortality at 100 ppm (Ctenocephalides felis [1]) [%] | mortality at 20 ppm (Myzus persicae [2]) [%] | mortality at 20 mg/m2 [3] [%] | mortality at 500 g/ha (Spodoptera frugiperda) [%] | mortality at 500 g/ha (Phaedon cochleariae) [%] | mortality at 4 ppm (Myzus persicae [2]) [%] | pest or weed control at 0.02 mg (Boophilus microplus) [%] | mortality at 500 g/ha (Nezara viridula) [%] | mortality at 20 mg/m2 [4] [%] | pest or weed control at 5 µg/cm2 (Ctenocephalides felis [5]) [%] | mortality at 4 mg/m2 [3] [%] | mortality at 4 mg/m2 [6] [%] | mortality at 20 mg/m2 [6] [%] | mortality at 500 g/ha (Nilaparvata lugens) [%] | mortality at 4 mg/m2 ([4]; surface concentration 4 mg/m^2, 30 min exposure) [%] | mortality at 500 g/ha (Myzus persicae [7]) [%] |
| --- | --- | --- | --- | --- | --- | --- | --- | --- | --- | --- | --- | --- | --- | --- | --- | --- |
| CC(c1ncnn1-c1ncccn1)N(CC1(c2ccccc2)CC1)C(=O)c1cc(Cl)cc(C(F)(F)F)c1 (stereo not shown) [Example I-006] | 100 | 90 | 90 to 100 | 100 | 100 |  |  |  |  |  |  |  |  |  |  |  |
| CC(c1ncnn1-c1ncccn1)N(CC1CCOCC1)C(=O)c1cc(Cl)cc(C(F)(F)F)c1 (stereo not shown) [Example I-008] |  | 100 |  |  | 100 |  |  |  |  |  |  |  |  |  |  |  |
| CC(c1ncnn1-c1ncccn1)N(CC1(C)CC1)C(=O)c1cc(Cl)cc(C(F)(F)F)c1 (stereo not shown) [Example I-009] | 100 | 100 |  | 100 | 100 | 100 | 80 | 100 |  |  |  |  |  |  |  |  |
| CC(c1ncnn1-c1ncccn1)N(Cc1ncccn1)C(=O)c1cc(Cl)cc(C(F)(F)F)c1 (stereo not shown) [Example I-010] | 100 | 100 | 90 to 100 | 100 | 100 | 100 | 100 | 100 | 90 to 100 | 100 | 80 to 100 | 85 to 100 | 85 to 100 |  |  |  |
| CC(c1ncnn1-c1ncccn1)N(Cc1ccncc1)C(=O)c1cc(Cl)cc(C(F)(F)F)c1 (stereo not shown) [Example I-014] | 100 | 100 |  | 100 | 100 | 100 | 100 | 100 |  |  |  |  |  | 100 |  |  |
| CC(c1ncnn1-c1ncccn1)N(CC1CCOC1)C(=O)c1cc(Cl)cc(C(F)(F)F)c1 (stereo not shown) [Example I-015] | 100 | 100 |  | 100 | 100 |  | 100 |  |  |  |  |  |  |  |  |  |
| CC(c1ncnn1-c1ncccn1)N(Cc1ccc(C#N)cc1)C(=O)c1cc(Cl)cc(C(F)(F)F)c1 (stereo not shown) [Example I-018] | 100 | 100 | 90 to 100 | 100 | 100 | 100 | 90 | 100 | 90 to 100 |  | 80 to 100 |  |  |  | 90 to 100 |  |
| CC(c1ncnn1-c1ncccn1)N(Cc1cccnc1)C(=O)c1cc(Cl)cc(C(F)(F)F)c1 (stereo not shown) [Example I-019] | 90 | 100 | 90 to 100 | 100 | 100 | 100 | 100 | 100 |  |  |  |  |  | 100 |  |  |
| COc1ccc(CN(C(=O)c2cc(Cl)cc(C(F)(F)F)c2)C(C)c2ncnn2-c2ncccn2)cc1 (stereo not shown) [Example I-020] | 100 | 100 |  |  |  |  | 80 | 100 |  |  |  |  |  |  |  |  |
| CC(c1ncnn1-c1ncccn1)N(C(=O)c1cc(Cl)cc(C(F)(F)F)c1)C1CSC1 (stereo not shown) [Example I-024] | 100 | 100 |  |  | 100 | 100 |  | 100 |  | 100 |  |  |  | 100 |  |  |
| CC(c1ncnn1-c1ncccn1)N(C(=O)c1cc(Cl)cc(C(F)(F)F)c1)C1CS(=O)(=O)C1 (stereo not shown) [Example I-025] | 100 | 100 | 90 to 100 |  | 100 | 100 |  | 100 |  |  |  | 85 to 100 | 85 to 100 | 90 |  |  |
| CSCCN(C(=O)c1cc(Cl)cc(Cl)c1)C(C)c1ncnn1-c1ccc(C#N)cn1 (stereo not shown) [Example I-036] |  |  |  | 100 |  | 100 |  | 90 |  | 100 |  |  |  |  |  | 90 |
| CSCCN(C(=O)c1cc(Cl)cc(S(F)(F)(F)(F)F)c1)C(C)c1ncnn1-c1ccc(C#N)cn1 (stereo not shown) [Example I-039] |  |  |  | 100 |  |  |  | 100 |  | 100 |  |  |  |  |  | 100 |
| CSCCN(C(=O)c1cc(F)cc(C2CC2)c1)C(C)c1ncnn1-c1ccc(C#N)cn1 (stereo not shown) [Example I-040] |  |  |  |  |  |  |  |  |  | 100 |  |  |  |  |  | 100 |
| CC(c1ncnn1-c1ncccn1)N(CCNS(C)(=O)=O)C(=O)c1cc(Cl)cc(C(F)(F)F)c1 (stereo not shown) [Example I-041] |  |  |  | 100 |  | 100 |  |  |  |  |  |  |  |  |  | 90 |
| CCOC(=O)NCCN(C(=O)c1cc(Cl)cc(C(F)(F)F)c1)C(C)c1ncnn1-c1ncccn1 (stereo not shown) [Example I-042] |  |  |  | 100 |  | 100 |  | 100 |  |  |  |  |  | 100 |  | 100 |
| CC(=O)NCCN(C(=O)c1cc(Cl)cc(C(F)(F)F)c1)C(C)c1ncnn1-c1ncccn1 (stereo not shown) [Example I-043] |  |  |  | 100 |  | 100 |  | 100 |  |  |  |  |  |  |  | 100 |

From patent US12116357B2, “Heteroaryl-triazole and heteroaryl-tetrazole compounds as pesticides” (Bayer Aktiengesellschaft, priority 2018, dated 2024)
